Data on one molecule can be found in patent US9404192B2, “Highly stable electrolytic water with reduced NMR half line width” (priority 2007, dated 2016).

The subject of the test is Reconstructed Human Epidermids (RHEs). The experiment in a line: trans-epithelial electrical resistance (TEER) testing. Format: cell-based. The note with it: SDS 0.1% solution on RHE, FIG. 3. As for the experimental part: The formulations described in Tables B-F were tested for their effect on trans-epithelial electrical resistance according to the following procedure.
1 ml of saline solution is directly applied on the tissue placed in a 6 well plate containing 4 ml of saline solution as well.
The instrument Millicell-ERS (range 0-20 kΩ) is placed with the two electrodes in the two chambers and the measure is recorded directly and reported in the laboratory note book.
Five measurements for each tissue have been done: because of the variability within the tissues the measurement done at t=0 has been taken as basal value and reference of each single tissue.
At the arrival the tissues have been placed in 6 well plates with maintenance medium (SkinEthic) for 2 hours before the TEER measurements.
The basal TEER value is measured on all the tissue as described in the method.
The tissues have been recovered in maintenance medium (1 ml) and the test items have been applied at the dose of 50 μl.
Tissues have been finally incubated at 37° C. in 5% CO2 incubator.
The tissues have been rinsed with saline solution and the second TEER measurement, corresponding to the 24 h exposure, has been performed.
The RHEs have been recovered in fresh maintenance medium (1 ml) for a 24 h post incubation time. […]

Turning to `CCCCCCCCCCCCOS(=O)(=O)[O-].[Na+]` [sodium dodecyl sulphate], the TEER entry is “strong decrease of TEER”.
